{"source": "PubChem BioAssay AID1963443", "about": "(Molecular Pharmacology Branch, DTP, NCI, 2024)", "test_system": "MDA-MB-231 complex spheroids, growth inhibition", "assay": "Anticancer human tumor MDA-MB-231 cell line growth inhibition [Asc];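 also: spheroids exposed to compounds for 7 days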", "details": "for viability, T/C: stronger effect = lower value", "how_it_was_run": "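Tumor cells were grown as complex spheroids with human endothelial cells (HUVEC) and human mesenchymal stem cells as stroma. Agents were tested alone and in combination, in half-log steps down from the clinical Cmax, or from 10 microM where Cmax was unknown.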", "note": "Values joined by “and” are separate entries in the source; they are usually repeats but may differ in a detail not shown here. Equal values may be shown once."}
{"compound": "C=C(F)C(=O)N1CCN(c2nc(OCC3CCCN3C)nc3c2CCN(c2cccc4cccc(Cl)c24)C3)CC1CC#N", "note": "(configuration not stated) + CNC(C)C(=O)NC1CN(S(=O)(=O)c2cccc(S(=O)(=O)N3CCC4CCC(C(=O)NC(c5ccccc5)c5ccccc5)N4C(=O)C(NC(=O)C(C)NC)C3)c2)CCC2CCC(C(=O)NC(c3ccccc3)c3ccccc3)N2C1=O", "values": [{"measurement": "IC50", "setting": "curve of first compound, second compound 0.01 µM", "result": "< 31.6", "unit": "nM"}, {"measurement": "IC50", "setting": "curve of first compound, second compound 0.0316 µM", "result": "< 31.6", "unit": "nM"}, {"measurement": "IC50", "setting": "curve of first compound, second compound 0.1 µM", "result": "< 31.6", "unit": "nM"}, {"measurement": "IC50", "setting": "curve of first compound, second compound 0.316 µM", "result": "< 31.6", "unit": "nM"}, {"measurement": "IC50", "setting": "curve of first compound, second compound 1 µM", "result": "< 31.6", "unit": "nM"}, {"measurement": "viability, T/C", "setting": "second compound 0.01 µM, first compound 0.0316 µM", "result": 1.99, "unit": "%"}, {"measurement": "viability, T/C", "setting": "second compound 0.01 µM, first compound 0.1 µM", "result": 2.81, "unit": "%"}, {"measurement": "viability, T/C", "setting": "second compound 0.01 µM, first compound 0.316 µM", "result": 1.5, "unit": "%"}, {"measurement": "viability, T/C", "setting": "second compound 0.01 µM, first compound 1 µM", "result": 1.02, "unit": "%"}, {"measurement": "viability, T/C", "setting": "second compound 0.01 µM, first compound 3.16 µM", "result": 0.39, "unit": "%"}, {"measurement": "viability, T/C", "setting": "second compound 0.01 µM, first compound 10 µM", "result": 0.09, "unit": "%"}, {"measurement": "viability, T/C", "setting": "second compound 0.0316 µM, first compound 0.0316 µM", "result": 1.12, "unit": "%"}, {"measurement": "viability, T/C", "setting": "second compound 0.0316 µM, first compound 0.1 µM", "result": 2.63, "unit": "%"}, {"measurement": "viability, T/C", "setting": "second compound 0.0316 µM, first compound 0.316 µM", "result": 1.75, "unit": "%"}, {"measurement": "viability, T/C", "setting": "second compound 0.0316 µM, first compound 1 µM", "result": 1.07, "unit": "%"}, {"measurement": "viability, T/C", "setting": "second compound 0.0316 µM, first compound 3.16 µM", "result": 0.75, "unit": "%"}, {"measurement": "viability, T/C", "setting": "second compound 0.0316 µM, first compound 10 µM", "result": 0.93, "unit": "%"}, {"measurement": "viability, T/C", "setting": "second compound 0.1 µM, first compound 0.0316 µM", "result": 0.94, "unit": "%"}, {"measurement": "viability, T/C", "setting": "second compound 0.1 µM, first compound 0.1 µM", "result": 1.79, "unit": "%"}, {"measurement": "viability, T/C", "setting": "second compound 0.1 µM, first compound 0.316 µM", "result": 1.68, "unit": "%"}, {"measurement": "viability, T/C", "setting": "second compound 0.1 µM, first compound 1 µM", "result": 0.86, "unit": "%"}, {"measurement": "viability, T/C", "setting": "second compound 0.1 µM, first compound 3.16 µM", "result": 0.38, "unit": "%"}, {"measurement": "viability, T/C", "setting": "second compound 0.1 µM, first compound 10 µM", "result": 0.08, "unit": "%"}, {"measurement": "viability, T/C", "setting": "second compound 0.316 µM, first compound 0.0316 µM", "result": 0.86, "unit": "%"}, {"measurement": "viability, T/C", "setting": "second compound 0.316 µM, first compound 0.1 µM", "result": 1.12, "unit": "%"}, {"measurement": "viability, T/C", "setting": "second compound 0.316 µM, first compound 0.316 µM", "result": 1.54, "unit": "%"}, {"measurement": "viability, T/C", "setting": "second compound 0.316 µM, first compound 1 µM", "result": 1.37, "unit": "%"}, {"measurement": "viability, T/C", "setting": "second compound 0.316 µM, first compound 3.16 µM", "result": 0.42, "unit": "%"}, {"measurement": "viability, T/C", "setting": "second compound 0.316 µM, first compound 10 µM", "result": 0.08, "unit": "%"}, {"measurement": "viability, T/C", "setting": "second compound 1 µM, first compound 0.0316 µM", "result": 1.4, "unit": "%"}, {"measurement": "viability, T/C", "setting": "second compound 1 µM, first compound 0.1 µM", "result": 1.56, "unit": "%"}, {"measurement": "viability, T/C", "setting": "second compound 1 µM, first compound 0.316 µM", "result": 1.18, "unit": "%"}, {"measurement": "viability, T/C", "setting": "second compound 1 µM, first compound 1 µM", "result": 1.49, "unit": "%"}, {"measurement": "viability, T/C", "setting": "second compound 1 µM, first compound 3.16 µM", "result": 0.43, "unit": "%"}, {"measurement": "viability, T/C", "setting": "second compound 1 µM, first compound 10 µM", "result": 0.98, "unit": "%"}]}
{"compound": "CCN1C(C(=O)NC23CCC(C(=O)O)(CC2)CC3)C(c2cccc(Cl)c2F)C2(C(=O)Nc3cc(Cl)ccc32)C12CCCCC2", "note": "(configuration not stated)", "values": [{"measurement": "viability, T/C", "setting": "compound 0.00949 µM", "result": "96.1% and 106%"}, {"measurement": "viability, T/C", "setting": "compound 0.03 µM", "result": "97.5% [middle of 15 runs]"}, {"measurement": "viability, T/C", "setting": "compound 0.0949 µM", "result": "104% [middle of 15 runs]"}, {"measurement": "viability, T/C", "setting": "compound 0.3 µM", "result": "105% [middle of 15 runs]"}, {"measurement": "viability, T/C", "setting": "compound 0.949 µM", "result": "112% [middle of 15 runs]"}, {"measurement": "IC50", "setting": "compound alone, run of 10/11/2022", "result": "> 3000", "unit": "nM"}, {"measurement": "IC50", "setting": "curve of compound", "result": "> 3000", "unit": "nM"}]}
